# Values quoted from earlier work, collected in paper PMC7511286 (European Journal of Drug Metabolism and Pharmacokinetics, 2020).
# Experiments:
# [1] = test system: CYP2C8; details: human liver microsomes, recombinant enzymes; ref data on file; cited from earlier work
# [2] = test system: CYP2C9; details: human liver microsomes, recombinant enzymes; ref data on file; cited from earlier work
# [3] = hepatocytes across different species; ref data on file; cited from earlier work
# [4] = free acid, multiple-dose phase 1 study; cited from earlier work
# [5] = test system: stimulated immune cells; details: cited from earlier work
# [6] = test system: human mitochondrial enzyme dihydroorotate dehydrogenase (DHODH); details: cited from earlier work
smiles,measurement,setting,value
COc1cccc(-c2ccc(NC(=O)C3=C(C(=O)O)CCC3)c(F)c2)c1 [vidofludimus],contribution of CYP isoform to metabolism,[1],predominant hepatic CYP isoform
same,contribution of CYP isoform to metabolism,[2],smaller contributions
same,number of metabolites identified,[3],eight
same,daily dose at which cases of hematuria occurred,[4],70 mg
same,inhibition of IL-17 and IFN-γ release,[5],very potent inhibitor
same,inhibition of DHODH,[6],potent and selective inhibitor
